In US11613750B2, “Methods of reducing virus molecule levels” (priority 2019, dated 2023):

Experiments:
SRSF1 mRNA = assay: Target mRNA reduction by RT-qPCR in HepG2.2.15 cells; assay type: cell-based, human; conditions: 10 nM siRNA
HBsAg = conditions: read-out: EC50, Extracell. HBsAg reduction; HepG2.2.15 cells
HCoV-OC43 [1] = assay: OC43 virion RNA, Branched DNA assay, infected HCT8 cells; assay type: cell-based, human coronavirus OC43; design: reduction in OC43 vRNA: dose or concentration left out as unconfirmed; conditions: for OC43 vRNA reduction siRNA and siGRP78: 10 nM siRNA along with 10 nM of siRNA targeting GRP78, HCT8 cells; for OC43 vRNA reduction: 10 nM siRNA
HBeAg = conditions: 10 nM siRNA transfected into cells
SRSF1 protein = assay: Target protein reduction by Western blot in HepG2.2.15 cells; assay type: cell-based, human; conditions: 10 nM siRNA, 72 h
HepG2.2.15 cells = assay: HepG2.2.15 cell viability, CellTiter-Glo; conditions: read-out: CC50, HepG2.2.15 cell viability; highest concentration tested 80 nM
GRP78 mRNA = assay: Target mRNA reduction by RT-qPCR in HepG2.2.15 cells; assay type: cell-based, human; conditions: 10 nM siRNA
GRP78 protein = assay: Target protein reduction by Western blot in HepG2.2.15 cells; assay type: cell-based, human; conditions: 10 nM siRNA, 72 h
HCoV-OC43 [2] = assay: OC43 virion RNA, RT-qPCR of the OC43 N gene, infected HCT8 cells; assay type: cell-based, human coronavirus OC43; design: dose or concentration left out as unconfirmed

Compound | Target RNA reduction in HepG2.2.15 cells (SRSF1 mRNA) [%] | EC50 (HBsAg) [nM] | OC43 vRNA reduction siRNA and siGRP78 (HCoV-OC43 [1]) [%] | OC43 vRNA reduction (HCoV-OC43 [1]; HCT8 cells) [%] | HBeAg reduction HepG2.2.15 cells (HBeAg) [%] | Target protein reduction in HepG2.2.15 cells (SRSF1 protein) [%] | CC50 (HepG2.2.15 cells) [nM] | Target RNA reduction in HepG2.2.15 cells (GRP78 mRNA) [%] | Target protein reduction in HepG2.2.15 cells (GRP78 protein) [%] | reduction in OC43 vRNA (HCoV-OC43 [1]; HCT8 cells) | OC43 virion production remaining (HCoV-OC43 [2])
22 (CAUCUACGUGGGUAACUUAUUUAAGUUACCCACGUAGAUGUU; siRNA; Self-complementary hairpin strand, chemistry not given here, further chemistry not given here; listed as Homo sapiens) [compound 22] | 71 ± 1 | 0.9 | 85 ± 4 | 36 ± 3 | 33.5 ± 5 | 92 ± 20 | > 80 |  |  |  | 
21 (CUGUUACAAUCAAGGUCUATTUAGACCUUGAUUGUAACAGTT; siRNA; Self-complementary hairpin strand, chemistry not given here, further chemistry not given here; listed as Homo sapiens) [compound 21] |  | 1.6 | 90 ± 4 | 89 ± 8 | 61.5 ± 10 |  | > 80 | 90 ± 3 | 59 ± 2 |  | 
CCC(CC)COC(=O)[C@H](C)N[P@](=O)(OC[C@H]1O[C@@](C#N)(c2ccc3c(N)ncnn23)[C@H](O)[C@@H]1O)Oc1ccccc1 [Remdesivir, reference compound] |  |  |  |  |  |  |  |  |  | more than 98% | less than 5%
23 (CUGGAUAACACUAAGUUUAUUUAAACUUAGUGUUAUCCAGUU; siRNA; Self-complementary hairpin strand, chemistry not given here, further chemistry not given here; listed as Homo sapiens) [compound 23] |  | 3.9 |  |  | 29.8 ± 3 | 81 ± 11 | > 80 |  |  |  | 
